Data published in patent US9737487B2, “Cyclodextrin compositions encapsulating a selective ATP inhibitor and uses thereof” (The Johns Hopkins University, priority 2014, dated 2017).
Counter-ions that a name gives are not always drawn.

Experiments:
[1] = in vivo, after systemic administration; cited from earlier work
[2] = test system: orthotopic MiaPaCa-2 tumors; assay: Orthotopic lucMiaPaCa-2 xenograft, systemic treatment with BLI follow-up, survival and necropsy (Example 6); type: in vivo, mice
Description: Male athymic nude mice (body weight, 20-25 g; 4 weeks old; Crl:NU (NCr)-Fox1^nu; Charles River Laboratory, Germantown, Md., USA) were used in accordance with institutional guidelines under approved Animal Care and Use Committee protocols. Mice were maintained in laminar flow rooms at constant temperature and humidity with food and water given ad libitum. Orthotopic xenograft tumors were generated by implantation of 1.5×10^6 lucMiaPaCa-2, suspended in 50 μl PBS, into the tail of the pancreas in anesthetized mice. To accomplish this, mice were placed into a clean anesthesia induction chamber (oxygen flow rate, 1 liter/minute; isoflurane concentration of 3-4%). Upon loss of the righting reflex, animals were placed on the surgical procedure surface, where a nose cone was used to maintain anesthesia (oxygen flow, 0.8 liters/minute; Isoflurane concentration, 1.5-2%). A small, left abdominal flank incision was made, and the pancreas was exteriorized to inject the cell solution using a 30 G Hamilton syringe. A successful subcapsular intrapancreatic injection was identified by the appearance of a fluid bleb without intraperitoneal leakage. The abdominal cavity was closed with a double-layer of non-absorbable suture material (Kim et al. (2009) Nat. Protocol. 4:1670-1680).
Tumor viability was confirmed via in vivo bioluminescence imaging (BLI) on day 7 after the surgical implantation. Anesthetized tumor-bearing mice were injected intraperitoneally with D-luciferin 150 mg/kg and optically imaged 5 minutes later using the IVIS 200 system (Xenogen). The pseudocolor image representing the spatial distribution of photons was overlaid on a previously acquired grayscale photographic image. A region of interest (ROI) was created to include the optical tumor image. Signal intensity was quantified within the ROI in photons/second/squared centimeter/steradian (p/s/cm2/Sr) after a 10-second exposure using Living Image software (Xenogen). Additionally, orthotopic growth of the tumors was confirmed prior to treatment using small-animal ultrasound imaging (USI). In brief, anesthetized mice were subjected to examination using the VEVO2100 (Visual Sonics Inc., Toronto, Canada, kindly provided by Dr. Harry C. Dietz) by applying a MS-550D MicroScan transducer probe with 40 MHz (broadband with 22-55 MHz). Tumor localization was confirmed using the cranial tip of the left kidney and the caudal tip of the spleen as anatomic landmarks (Ota et al. (2013) Target. Oncol. 8:145-151; Tuli et al. (2012) Translat. Oncol. 5:77-84). […]

[3] = test system: subcutaneous pancreatic cancer xenografts; details: 5 mg/kg, twice per week, systemic; cited from earlier work
[4] = Comparative dose escalation studies in non-tumor-bearing animals; type: in vivo, mice; details: after a single injection
Description: The anti-cancer efficacy of systemically delivered β-CD-3-BrPA was tested using a xenograft model of human pancreatic cancer in athymic nude mice. Prior to choosing the therapeutic dose for more detailed studies, comparative dose escalation studies in non-tumor-bearing animals were performed for both β-CD-3-BrPA and free 3-BrPA. […] animals with orthotopically-implanted and BLI- and USI-confirmed MiaPaCa-2 tumors were then randomized to receive intraperitoneal (i.p.) injections of β-CD-3-BrPA (N=21), gemcitabine (N=7), or β-CD (N=7). An additional group of animals with orthotopic implants (N=7) was treated with free 3-BrPA. […] At the end of the experiment (Day 28), only 2/7 animals (28%) treated with the free drug were still alive (FIG. 12, Panel C). […] After four weeks of treatment, a comparison of BLI signal intensity between the groups was performed. […] After achieving this endpoint, animals were sacrificed and tumors were harvested for further analysis. All animals were subjected to necropsies and organs (brain, heart, lungs, bowel, liver, and kidneys) were harvested for the analysis of potential tissue damage.

[5] = test system: matrix-metalloproteinase 9 (MMP-9); assay: MMP-9 secretion by gelatin zymography and immunoblotting, MiaPaCa-2; type: cell-based, human; details: 24 hrs., dose that did not induce apoptosis or reduce cell viability
Description: (§1) Zymography assays were performed to determine the activity of secreted MMP-9. Accordingly, 4×10^6 Suit-2 cells and 2.5×10^6 lucMiaPaCa-2 cells were seeded in 75 cm^2-flasks and incubated overnight at 37° C. under normoxic conditions. The following day, fresh FBS-free medium containing different concentrations of 3-BrPA was added and cells were incubated for an additional 24 hrs. Subsequently, supernatants were collected, filtered, and the final protein concentrations were determined using the 2D Quant Kit (GE Healthcare). After adjustment for concentration, each sample was loaded onto two 10% gelatin zymography gels (Novex, Invitrogen). Following electrophoresis, proteins in one of the two gels were renaturated and enzymatic digestion was allowed overnight at 37° C. in a developing buffer. The gel was stained with 4 parts 0.1% Coomassie Brilliant Blue in 1 part 100% methanol for 24 hrs. and washed with distilled (DI) water until digested areas were detectable as white bands. Western Blot analysis was performed using the duplicate gel. Proteins were blotted onto a PVDF-Membrane and blocked using 5% skimmed milk in 1×TBS and 0.1% Tween in DI (TBST). […] The HRP provided an […] signal (ECL Kit, GE Healthcare), which was analyzed with ImageJ 1.46r software (Wayne Rasband, National Institute of Health) and used to quantify signal intensity by comparing line integrals.

Suit-2 cells [6] = assay: Matrigel invasion assay, Suit-2; type: cell-based, human; details: sub-lethal concentrations, 72 hrs.
Description: (§2) The ability of 3-BrPA to inhibit tumor invasion was studied using a matrigel invasion assay, as well as gelatin zymography (Hu and Beeton (2010) J. Visual. Exp. 45:2445; Scott et al. (2011) J. Visual. Exp. 58:e3525). For the matrigel invasion assays, a coating buffer containing 0.01 M Tris and 0.7% sodium chloride was prepared and used to dilute the matrigel basement membrane (BD Biosciences, #356234) to 300 ug/ml. Subsequently, Boyden chambers (Transwell, Corning; 6.5 mm-diameter, 8 um pore size) were coated with 100 μl matrigel solution and stored at 37° C. for 2 hrs. to allow for gelatination. Approximately 7.5×10^4 cells were resuspended in 500 μl FBS-free medium and plated into the upper chamber of the insert, which was then placed into a 24-well plate containing […] FBS-containing medium. After overnight incubation at 37° C., various amounts of 3-BrPA dissolved in PBS were added to the upper chamber. Fourty-eight hours later, non-invasive cells were removed from the matrigel with a cotton swab. Invaded cells adherent to the bottom side of the permeable insert were fixed and stained with the Diff Quik Stain Kit (Polysciences Inc.). […] Invasion of cells was quantified by measuring the area of stained cells after treatment compared to untreated samples at 10× magnification.

[7] = test system: matrix-metalloproteinase 9 (MMP-9); assay: MMP-9 secretion by gelatin zymography and immunoblotting, Suit-2; type: cell-based, human; details: 24 hrs., dose that did not induce apoptosis or reduce cell viability
Description: as §1

MiaPaCa-2 cells = assay: Matrigel invasion assay, MiaPaCa-2; type: cell-based, human; details: sub-lethal concentrations, 48 hrs.
Description: as §2

lucMiaPaCa-2 cells = assay: Monolayer cell culture viability assay (CellTiter-Glo), normoxic or hypoxic, lucMiaPaCa-2; type: cell-based; details: Homo sapiens; normoxic, 72 hrs. exposure; barely achieved
Description: (§3) Two human pancreatic adenocarcinoma cell lines, lucMiaPaCa-2 (stably transfected with the luciferase-aminoglycoside phosphotransferase fusion gene, kindly provided by Dr. Phuoc T. Tran) and Suit-2 (kindly provided by Dr. Shinichi Ota, Japan) were cultured in RPMI or MEM media, respectively, both supplemented with 10% FBS and 1% Penicillin-Streptomycin. The effects of different drugs on cell viability were determined by quantifying intracellular adenosine triphosphate (ATP) levels using a luminescence-based kit (CellTiter-Glo, Promega) and a multilable 96-well plate (Costar). The accuracy and reproducibility of viability measurements using this luminiscence-based kit in lucMiaPaCa-2 cells was confirmed using the Dual-Reporter assay kit (Promega). In brief, 5×10^3 cells were seeded in triplicate and incubated for 72 hrs. under normoxic or hypoxic (1% O2-level, balanced with CO2 and nitrogen within a controlled atmosphere chamber) conditions. Indicated amounts of free 3-BrPA, 1:1-β-CD-3-BrPA or β-CD as a control were dissolved in PBS and added to the medium for 24 hrs. of treatment. For the experiments with gemcitabine, cells were incubated for 24 hrs. prior to a 72 hrs. exposure to the drug. Cell viability was determined following the manufacturer's protocol.

Suit-2 cells [8] = assay: Monolayer cell culture viability assay (CellTiter-Glo), Suit-2; type: cell-based; details: Homo sapiens, normoxic, 72 hrs. exposure, barely achieved
Description: as §3

O=C(O)C(=O)CBr [3-BrPA, 3-bromopyruvate]
time of inactivation through interaction with serum proteins (as early as) [1]: 2 to 3 min | animals died before the acquisition of the first follow-up BLI ([2]; daily i.p. 5 mg/kg in 500 μl saline): 3/7 | loss of animals at the end of the experiment (treatment-related toxicity, Kaplan-Meier) ([2]; daily i.p. 5 mg/kg, 28 days): 5/7 | animals still alive at the end of the experiment ([2]; daily i.p. 5 mg/kg, Day 28): 2/7 | efficacy of 3-BrPA alone [3]: did not report any significant efficacy | median lethal dose (LD50) [4]: 10 mg/kg | concentration at which marked reduction in the secretion of MMP-9 begins [5]: 6.25 µM | drug concentration showing a reduction in invasion (as low as) (Suit-2 cells [6]): 12.5 µM | concentration at which marked reduction in the secretion of MMP-9 begins [7]: 6.25 µM | drug concentration showing a reduction in invasion (as low as) (MiaPaCa-2 cells): 12.5 µM

Nc1ccn([C@@H]2O[C@H](CO)[C@@H](O)C2(F)F)c(=O)n1 [gemcitabine, gemcitabine hydrochloride salt]
BLI signal increase as compared to baseline ([2]; after four weeks of treatment): 60 fold | IC50 (lucMiaPaCa-2 cells): 100 nM | IC50 (Suit-2 cells [8]): 100 nM
